In ChEMBL document CHEMBL1201862, “PubChem BioAssay data set” (2004):
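Briefly, cells in 96-well plates were exposed to five compound concentrations for 48 h, and endpoints were estimated by linear interpolation. GI50 marks 50% less growth.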 The source made the active and inactive calls. No stated cut-off is given here; in the data, active = GI50 up to about 1.1 µM and inactive = higher. Where a SMILES comes first, the peptide text is derived from it. [ ]: non-standard residue; d: D form. Ac5c = NC1(C(=O)O)CCCC1

What was measured:
Test in all cases: NCI tumour cell line growth inhibition, 48 h
COLO 205 = test system: COLO 205
HCT-116 = test system: HCT-116
K562 = test system: K562
KM12 = test system: KM12
M14 = test system: M14
MOLT-4 = test system: MOLT-4
OVCAR-5 = test system: OVCAR-5
OVCAR-8 = test system: OVCAR-8
RXF 393 = test system: RXF 393
SF-539 = test system: SF-539
SK-MEL-28 = test system: SK-MEL-28
SK-MEL-2 = test system: SK-MEL-2
SN12C = test system: SN12C
SNB-75 = test system: SNB-75
SW-620 = test system: SW-620
TK-10 = test system: TK-10
DU-145 = test system: DU-145
PC-3 = test system: PC-3
Hs-578T = test system: Hs-578T

Measured: GI50

Cc1cc2c(C)n(Cc3ccc(Cl)cc3Cl)nc2c(C#N)c1C
inactive: COLO 205 > 95.5 µM | HCT-116 29.8 µM | K562 > 100 µM | KM12 > 100 µM | M14 49 µM | MOLT-4 > 100 µM | OVCAR-5 > 42.1 µM | OVCAR-8 14.8 µM | RXF 393 15.3 µM | SF-539 27.2 µM | SK-MEL-28 36 µM | SK-MEL-2 > 61.4 µM | SN12C 53.3 µM | SNB-75 7.94 µM | SW-620 > 100 µM | TK-10 23.7 µM

COc1ccc(C(CC(=O)c2ccccc2)C(=O)c2ccc3c(c2)OCO3)cc1 (stereo not drawn)
inactive: COLO 205 > 100 µM | DU-145 > 100 µM | K562 > 100 µM | KM12 > 100 µM | M14 > 100 µM | MOLT-4 > 100 µM | OVCAR-8 > 100 µM | PC-3 > 100 µM | SK-MEL-28 > 100 µM | SK-MEL-2 > 100 µM | SN12C > 100 µM | SNB-75 > 100 µM | SW-620 > 100 µM | TK-10 > 100 µM

OC(c1cc2ccccc2o1)c1cc2ccccc2s1 (stereo not drawn)
inactive: COLO 205 > 10 µM | DU-145 > 10 µM | HCT-116 > 10 µM | Hs-578T 9.53 µM | K562 4.57 µM | KM12 7.23 µM | M14 > 10 µM | MOLT-4 > 10 µM | OVCAR-5 > 10 µM | OVCAR-8 > 10 µM | PC-3 8.57 µM | RXF 393 > 10 µM | SF-539 > 10 µM | SK-MEL-28 > 10 µM | SK-MEL-2 > 10 µM | SN12C > 10 µM | SNB-75 > 10 µM | SW-620 > 10 µM | TK-10 > 10 µM

O=C1c2ccccc2N2OC3(N4CCOCC4)CCCC3C12c1ccccc1 (stereo not drawn)
inactive: COLO 205 > 100 µM | HCT-116 > 100 µM | K562 > 100 µM | M14 > 100 µM | MOLT-4 > 100 µM | OVCAR-8 > 100 µM | RXF 393 49.2 µM | SF-539 > 100 µM | SK-MEL-28 > 100 µM | SN12C > 100 µM | SNB-75 > 100 µM | SW-620 > 100 µM

Clc1cccc(C2SCc3nc4ccccc4n32)c1 (stereo not drawn)
inactive: COLO 205 4.79 µM | K562 14.9 µM | KM12 18.8 µM | M14 19.7 µM | MOLT-4 23.1 µM | OVCAR-5 15 µM | OVCAR-8 24.8 µM | RXF 393 15 µM | SF-539 21.1 µM | SK-MEL-28 19.1 µM | SN12C 13.8 µM | SNB-75 3.52 µM | SW-620 32.9 µM | TK-10 25.6 µM

C/C(=C\COP(=O)(O)OP(=O)(O)O)CC/C=C(\C)CNc1ccc([N+](=O)[O-])cc1
inactive: COLO 205 > 100 µM | DU-145 > 100 µM | HCT-116 > 100 µM | Hs-578T > 100 µM | K562 > 100 µM | KM12 > 100 µM | M14 > 100 µM | MOLT-4 > 100 µM | OVCAR-5 > 100 µM | OVCAR-8 > 100 µM | PC-3 > 100 µM | RXF 393 > 100 µM | SF-539 > 100 µM | SK-MEL-28 > 100 µM | SK-MEL-2 > 100 µM | SN12C > 100 µM | SNB-75 > 100 µM | SW-620 > 100 µM | TK-10 > 100 µM

COc1ccc(OC)c(NC(=O)C(=O)C(C(C)=O)c2nc3ccc(Cl)cc3nc2O)c1 (stereo not drawn)
inactive: COLO 205 > 50 µM | HCT-116 > 50 µM | K562 > 50 µM | KM12 > 50 µM | M14 > 50 µM | MOLT-4 > 50 µM | OVCAR-5 > 50 µM | OVCAR-8 > 50 µM | RXF 393 > 50 µM | SF-539 > 50 µM | SK-MEL-28 > 50 µM | SK-MEL-2 > 50 µM | SN12C > 50 µM | SNB-75 > 50 µM | SW-620 > 50 µM | TK-10 > 50 µM

COC(=O)/C=C(C)/C=C/C1OC(C)OCC1O (stereo not drawn)
inactive: COLO 205 > 100 µM | K562 > 100 µM | KM12 > 100 µM | M14 > 100 µM | MOLT-4 > 100 µM | OVCAR-5 > 100 µM | OVCAR-8 > 100 µM | SF-539 > 100 µM | SN12C > 100 µM | SW-620 > 100 µM | TK-10 > 100 µM

COC(=O)C(=O)C(C(=O)C(=O)Nc1cc([N+](=O)[O-])ccc1[N+](=O)[O-])c1nc2ccc(C(=O)c3ccccc3)cc2nc1O (stereo not drawn)
inactive: COLO 205 32.6 µM | HCT-116 40.6 µM | K562 21.3 µM | KM12 28.9 µM | M14 33.1 µM | MOLT-4 18.1 µM | OVCAR-5 20.7 µM | OVCAR-8 26.9 µM | SF-539 35.2 µM | SK-MEL-2 37.2 µM | SN12C 44.2 µM | SW-620 28.4 µM

Nc1nc2c(ncn2Cc2ccccc2CCO)c(=O)[nH]1
inactive: COLO 205 > 100 µM | K562 > 100 µM | KM12 > 100 µM | M14 > 100 µM | MOLT-4 > 100 µM | OVCAR-5 > 100 µM | OVCAR-8 > 100 µM | RXF 393 > 100 µM | SK-MEL-28 > 100 µM | SK-MEL-2 > 100 µM | SN12C > 100 µM | SNB-75 > 100 µM | SW-620 > 100 µM | TK-10 > 100 µM

Oc1nc2cc(Cl)ccc2nc1/C(=N\Nc1ccccc1)C(O)c1ccc(Cl)c(Cl)c1 (stereo not drawn)
inactive: COLO 205 > 100 µM | HCT-116 > 100 µM | K562 > 100 µM | KM12 > 100 µM | M14 > 100 µM | MOLT-4 > 100 µM | OVCAR-5 > 100 µM | OVCAR-8 > 100 µM | RXF 393 > 100 µM | SF-539 > 100 µM | SK-MEL-2 > 100 µM | SN12C 36.7 µM | SNB-75 > 100 µM | SW-620 > 100 µM | TK-10 > 100 µM

Nc1ncnc2c1sc(=S)n2-c1ccccc1
inactive: COLO 205 > 100 µM | HCT-116 > 100 µM | K562 > 100 µM | KM12 > 100 µM | M14 > 100 µM | MOLT-4 > 100 µM | OVCAR-5 > 100 µM | OVCAR-8 > 100 µM | RXF 393 > 100 µM | SF-539 > 100 µM | SK-MEL-28 > 100 µM | SK-MEL-2 > 100 µM | SN12C > 100 µM | SNB-75 > 100 µM | SW-620 > 100 µM | TK-10 > 100 µM

N#Cc1cc([N+](=O)[O-])ccc1NC(=O)C(F)(F)F
inactive: COLO 205 20.7 µM | HCT-116 > 42.9 µM | K562 > 60.5 µM | KM12 > 100 µM | M14 > 100 µM | MOLT-4 > 100 µM | OVCAR-5 > 100 µM | OVCAR-8 > 84.3 µM | RXF 393 > 56.6 µM | SF-539 > 100 µM | SK-MEL-28 > 100 µM | SK-MEL-2 > 100 µM | SN12C > 100 µM | SNB-75 > 49.7 µM | SW-620 > 40.9 µM | TK-10 > 100 µM

CCN(CC)c1ccc(/N=N/c2ccc(-c3nc4cccn(C)c-4n3)cc2)cc1
inactive: COLO 205 14.3 µM | HCT-116 3.61 µM | K562 2.86 µM | KM12 8.95 µM | M14 9.33 µM | MOLT-4 2.23 µM | OVCAR-5 3.56 µM | OVCAR-8 10.3 µM | RXF 393 3.21 µM | SF-539 12.7 µM | SK-MEL-2 17.5 µM | SN12C 6.04 µM | SNB-75 17 µM | SW-620 7.36 µM | TK-10 27.9 µM

COC(=O)/C(=N/NC(C)(C)C)C(C(=O)C=C(C)C)C(=O)C(=O)Nc1ccc(Cl)cc1C (stereo not drawn)
inactive: COLO 205 > 100 µM | HCT-116 > 100 µM | K562 > 100 µM | KM12 > 100 µM | M14 > 100 µM | MOLT-4 > 100 µM | OVCAR-5 > 100 µM | OVCAR-8 > 100 µM | SF-539 > 100 µM | SK-MEL-28 > 100 µM | SK-MEL-2 > 100 µM | SN12C > 100 µM | SW-620 > 100 µM | TK-10 > 100 µM

COc1ccc(C2Oc3c(c(O)cc4c3[C@H](c3ccc(O)cc3O)[C@H](O)C(c3ccc(O)c(O)c3)O4)C[C@@H]2O)cc1O (stereo partly drawn)
inactive: COLO 205 > 100 µM | HCT-116 > 100 µM | K562 > 100 µM | KM12 > 100 µM | M14 > 100 µM | MOLT-4 > 100 µM | OVCAR-5 > 100 µM | OVCAR-8 > 100 µM | RXF 393 > 100 µM | SF-539 > 100 µM | SK-MEL-2 > 100 µM | SN12C > 100 µM | SNB-75 > 100 µM | SW-620 > 100 µM | TK-10 > 100 µM

COC(=O)C1(NC(=O)C(C)NC(=O)C(CCCCN)NC(=O)C(CC(C)C)NC(C)=O)CCCC1 (stereo not drawn) (Ac-LKA[Ac5c]-OMe; configuration not given here)
inactive: COLO 205 > 100 µM | HCT-116 > 100 µM | Hs-578T > 100 µM | K562 > 100 µM | KM12 > 100 µM | M14 > 100 µM | MOLT-4 > 100 µM | OVCAR-8 > 100 µM | PC-3 > 100 µM | SF-539 > 100 µM | SK-MEL-28 > 100 µM | SN12C > 100 µM | SNB-75 > 100 µM | SW-620 > 100 µM | TK-10 > 100 µM
